System: Plasmodium berghei
Experiment: Luciferase/luciferin-expressing antifolate-resistant parasites were used to infect a culture of HepG2 cells that were pre-incubated with compounds. Infected hepatocytes emit light due to the luciferase reaction. Assay results are presented as the percent inhibition of light emission compared to control. […]
Type: functional
Conditions: sporozoite; for IC90: read-out: LUCIFERASE INFECTION ASSAY - IC90

Compound | IC90 | also measured
CCOC(=O)c1cnc2c([N+](=O)[O-])cccc2c1O | 4 µM | IC50 (PBLUC_HILL_SLOPE 2.74, PBLUC_R_SQUARED 0.626, read-out: LUCIFERASE INFECTION ASSAY - IC50): 1.79 µM
Cc1ccc(S(=O)(=O)N2c3ccc(S(N)(=O)=O)cc3CC2C)cc1 (stereo not drawn) | > 9.01 µM | IC50 (PBLUC_HILL_SLOPE 2.71, PBLUC_R_SQUARED 0.472, read-out: LUCIFERASE INFECTION ASSAY - IC50): 4.01 µM
O=C(Nc1ccc(Oc2ccc(C(F)(F)F)cn2)c(Cl)c1)C1CC1 | 4.36 µM | IC50 (PBLUC_HILL_SLOPE 2.75, PBLUC_R_SQUARED 0.594, read-out: LUCIFERASE INFECTION ASSAY - IC50): 1.96 µM
CN1C(c2ccc(F)cc2)=CS/C1=C(/C#N)c1nnc(N2CCOCC2)n1-c1ccccc1 | > 10 µM | IC50 (PBLUC_HILL_SLOPE 2.7, PBLUC_R_SQUARED 0.681, read-out: LUCIFERASE INFECTION ASSAY - IC50): 6.9 µM
COc1ccccc1NC(=O)Nc1nc(C(N)CCc2ccccc2)cs1 (stereo not drawn) | > 8.63 µM | IC50 (PBLUC_HILL_SLOPE 2.77, PBLUC_R_SQUARED 0.721, read-out: LUCIFERASE INFECTION ASSAY - IC50): 5.07 µM
OC(CN1CCN(CC(O)Cn2c3ccccc3c3ccccc32)CC1)Cn1c2ccccc2c2ccccc21 (stereo not drawn) | > 6.2 µM | IC50 (PBLUC_HILL_SLOPE 2.73, PBLUC_R_SQUARED 0.624, read-out: LUCIFERASE INFECTION ASSAY - IC50): 3.03 µM
CCn1ncc2c(C(=O)Nc3ccc(-c4cn5ccsc5n4)cc3)cc(-c3cccs3)nc21 | > 10 µM | IC50 (PBLUC_HILL_SLOPE 2.78, PBLUC_R_SQUARED 0.317, read-out: LUCIFERASE INFECTION ASSAY - IC50): 7.98 µM
Cc1ccc(-c2nc3c(c(SCCN4CCCC4)n2)COC(C)(C)C3)cc1 | > 8.6 µM | IC50 (PBLUC_HILL_SLOPE 2.75, PBLUC_R_SQUARED 0.0927, read-out: LUCIFERASE INFECTION ASSAY - IC50): 7.13 µM
CN(Cc1ccccc1)S(=O)(=O)N1CCC(C(O)(c2ccccc2)c2ccccc2)CC1 | 9.51 µM | IC50 (PBLUC_HILL_SLOPE 2.67, PBLUC_R_SQUARED 0.571, read-out: LUCIFERASE INFECTION ASSAY - IC50): 4.18 µM
CN1N=C(SCc2ccc(Cl)cc2Cl)Sc2c1cnn(C)c2=O | > 8.52 µM | IC50 (PBLUC_HILL_SLOPE 2.78, PBLUC_R_SQUARED 0.171, read-out: LUCIFERASE INFECTION ASSAY - IC50): 5.14 µM
Cc1ccc(Nc2nc(N)nc(CN(C)Cc3nc(=O)c4ccccc4[nH]3)n2)cc1 | 8.22 µM | IC50 (PBLUC_HILL_SLOPE 2.75, PBLUC_R_SQUARED 0.503, read-out: LUCIFERASE INFECTION ASSAY - IC50): 3.7 µM
Clc1ccc(OCCN2CCN(c3ccc4nnnn4n3)CC2)cc1 | > 10 µM | IC50 (PBLUC_HILL_SLOPE 2.76, PBLUC_R_SQUARED 0.489, read-out: LUCIFERASE INFECTION ASSAY - IC50): 6.13 µM
Cc1nc(-c2ccc(NC(=O)c3cnn(-c4ccccc4F)c3C(F)(F)F)cc2)cs1 | > 10 µM | IC50 (PBLUC_HILL_SLOPE 2.7, PBLUC_R_SQUARED 0.26, read-out: LUCIFERASE INFECTION ASSAY - IC50): 7.76 µM
CCN(CC)CCn1c(NC(=O)c2cc(-c3cccs3)nn2-c2ccccc2)nc2ccccc21 | > 10 µM | IC50 (PBLUC_HILL_SLOPE 2.69, PBLUC_R_SQUARED 0.0924, read-out: LUCIFERASE INFECTION ASSAY - IC50): 6.76 µM
COc1ccc(C(CNC(=O)c2ccccc2-c2ncc(-c3ccccc3)o2)N(C)C)cc1 (stereo not drawn) | > 10 µM | IC50 (PBLUC_HILL_SLOPE 2.7, PBLUC_R_SQUARED 0.455, read-out: LUCIFERASE INFECTION ASSAY - IC50): 5.19 µM
OCc1ccc(-c2cn3c(-c4ccc(Oc5ccccc5)cc4)cnc3cn2)cc1 | > 8.39 µM | IC50 (PBLUC_HILL_SLOPE 2.74, PBLUC_R_SQUARED 0.523, read-out: LUCIFERASE INFECTION ASSAY - IC50): 5.32 µM
COc1ccc(C(C)(C)C)cc1NC(=O)C(=O)c1c(-c2ccccc2)cc2ccccn12 | 8.89 µM | IC50 (PBLUC_HILL_SLOPE 2.71, PBLUC_R_SQUARED 0.442, read-out: LUCIFERASE INFECTION ASSAY - IC50): 3.95 µM
CC(C)CNC1=C(Cl)C(=O)c2ccccc2C1=O | > 12.5 µM | IC50 (PBLUC_HILL_SLOPE 2.71, PBLUC_R_SQUARED 0.283, read-out: LUCIFERASE INFECTION ASSAY - IC50): 11.4 µM
CCN(CC)S(=O)(=O)c1ccc(C(C)NC(=O)c2cn(C)c3ccccc23)cc1 (stereo not drawn) | 6.07 µM | IC50 (PBLUC_HILL_SLOPE 2.76, PBLUC_R_SQUARED 0.764, read-out: LUCIFERASE INFECTION ASSAY - IC50): 2.73 µM
COc1ccc(-c2cnc3cnc(-c4cccc(NC(C)=O)c4)cn23)cc1 | > 9.21 µM | IC50 (PBLUC_HILL_SLOPE 2.77, PBLUC_R_SQUARED 0.737, read-out: LUCIFERASE INFECTION ASSAY - IC50): 4.22 µM

Compound | IC90 | also measured
COc1cccc(-c2cc3c(Nc4cccc(OC(C)C)c4)nccc3n2C)c1 | > 10 µM | IC50 (PBLUC_HILL_SLOPE 2.76, PBLUC_R_SQUARED 0.246, read-out: LUCIFERASE INFECTION ASSAY - IC50): 6.87 µM
CC(C)(C)c1ccc(CSc2nncn2-c2ccc(OCc3ccccc3)cc2)cc1 | > 7.68 µM | IC50 (PBLUC_HILL_SLOPE 2.75, PBLUC_R_SQUARED 0.0661, read-out: LUCIFERASE INFECTION ASSAY - IC50): 5.39 µM
Cc1ccc(-n2[nH]c(C)c(C=Nc3ccc(OC(F)(F)F)cc3)c2=O)cc1 | > 8.79 µM | IC50 (PBLUC_HILL_SLOPE 2.73, PBLUC_R_SQUARED 0.732, read-out: LUCIFERASE INFECTION ASSAY - IC50): 4.57 µM
Cc1cc(/C=C(\C#N)C(=O)OCC(=O)c2c(N)n(CC(C)C)c(=O)n(C)c2=O)c(C)n1CC(C)C | > 10 µM | IC50 (PBLUC_HILL_SLOPE 2.67, PBLUC_R_SQUARED 0.243, read-out: LUCIFERASE INFECTION ASSAY - IC50): 7.76 µM
COc1cccc(Nc2nccc3nc(-c4cccc(C)c4)[nH]c23)c1 | > 10 µM | IC50 (PBLUC_HILL_SLOPE 2.7, PBLUC_R_SQUARED 0.647, read-out: LUCIFERASE INFECTION ASSAY - IC50): 6.02 µM
CCOc1cc2c(cc1CNC(=O)c1cnc3cc(C)nn3c1C)OC(C)C2 (stereo not drawn) | 4.78 µM | IC50 (PBLUC_HILL_SLOPE 2.71, PBLUC_R_SQUARED 0.828, read-out: LUCIFERASE INFECTION ASSAY - IC50): 2.13 µM
c1ccc2c(c1)[nH]c1nc(SCc3cn4ccsc4n3)nnc12 | 1.85 µM | IC50 (PBLUC_HILL_SLOPE 2.76, PBLUC_R_SQUARED 0.824, read-out: LUCIFERASE INFECTION ASSAY - IC50): 0.836 µM
CCN1CCc2nc(NC(=O)c3ccccc3Nc3ccc(F)cc3)sc2C1 | 8.04 µM | IC50 (PBLUC_HILL_SLOPE 2.71, PBLUC_R_SQUARED 0.663, read-out: LUCIFERASE INFECTION ASSAY - IC50): 3.58 µM
COc1cc(OC)c2[nH]c(C(=O)Nc3ccc(-n4cccn4)cc3)cc2c1 | > 10 µM | IC50 (PBLUC_HILL_SLOPE 2.78, PBLUC_R_SQUARED 0.238, read-out: LUCIFERASE INFECTION ASSAY - IC50): 6.45 µM
O=S(=O)(c1ccc(Cl)c(NC(=S)N/N=C/c2ccc3ncccc3c2)c1)N1CCOCC1 | > 10 µM | IC50 (PBLUC_HILL_SLOPE 2.75, PBLUC_R_SQUARED 0.637, read-out: LUCIFERASE INFECTION ASSAY - IC50): 5.55 µM
CCN(CC)CCn1c(NC(=O)c2cnc3c(cnn3C(C)C)c2)nc2ccccc21 | 6.55 µM | IC50 (PBLUC_HILL_SLOPE 2.78, PBLUC_R_SQUARED 0.504, read-out: LUCIFERASE INFECTION ASSAY - IC50): 2.97 µM
CC(C)NC(=O)c1c(NC(=O)c2cc(F)ccc2F)nc2ccccn12 | > 9.21 µM | IC50 (PBLUC_HILL_SLOPE 2.78, PBLUC_R_SQUARED 0.497, read-out: LUCIFERASE INFECTION ASSAY - IC50): 6.02 µM
CC(Oc1ccc(-c2ccc(C#N)cc2)cc1)C(=O)C12CC3CC(CC(C3)C1)C2 (stereo not drawn) | > 10 µM | IC50 (PBLUC_HILL_SLOPE 2.77, PBLUC_R_SQUARED 0.53, read-out: LUCIFERASE INFECTION ASSAY - IC50): 5.65 µM
Cn1ccc(NC(=O)c2cccc(S(=O)(=O)N(Cc3ccccc3)c3ccccc3Cl)c2)n1 | > 10 µM | IC50 (PBLUC_HILL_SLOPE 2.72, PBLUC_R_SQUARED 0.559, read-out: LUCIFERASE INFECTION ASSAY - IC50): 4.88 µM
COc1cc(OC)c(OC)cc1CNC(=O)c1ccc2[nH]c3c(c2c1)CCCC3 | > 10 µM | IC50 (PBLUC_HILL_SLOPE 2.72, PBLUC_R_SQUARED 0.276, read-out: LUCIFERASE INFECTION ASSAY - IC50): 9.2 µM
O=C(c1cc(-c2cccc3ccccc23)nc2ccccc12)N1CCN(c2ncccn2)CC1 | > 10 µM | IC50 (PBLUC_HILL_SLOPE 2.78, PBLUC_R_SQUARED 0.395, read-out: LUCIFERASE INFECTION ASSAY - IC50): 8.3 µM
O=C(/C=C/c1cccs1)N1CCN(S(=O)(=O)c2ccc(Cl)c(C(F)(F)F)c2)CC1 | > 10 µM | IC50 (PBLUC_HILL_SLOPE 2.7, PBLUC_R_SQUARED 0.367, read-out: LUCIFERASE INFECTION ASSAY - IC50): 5.47 µM
Cc1cc(NCCN(C)C)n2nc(C(F)(F)F)c(-c3ccccc3)c2n1 | > 9.08 µM | IC50 (PBLUC_HILL_SLOPE 2.75, PBLUC_R_SQUARED 0.0665, read-out: LUCIFERASE INFECTION ASSAY - IC50): 5.68 µM
CCN(CC)S(=O)(=O)c1ccc(N2CCOCC2)c(NC(=O)c2oc3ccccc3c2C)c1 | 9.03 µM | IC50 (PBLUC_HILL_SLOPE 2.77, PBLUC_R_SQUARED 0.561, read-out: LUCIFERASE INFECTION ASSAY - IC50): 4.08 µM

Source: ChEMBL document CHEMBL4483862, “Open-source discovery of chemical leads for next-generation chemoprotective antimalarials” (2018)
